Data taken from patent US20250090689A1, “[…] FOR TREATING EPILEPSY AND NEUROPATHIC PAIN” (Trames Bio, Inc., priority 2022, published 2025).

Molecular target: T1, CODA71 receptor (Homo sapiens, UniProt P36544, F159M/H163T/I152M/R155K/V154L/W156N/Y151P)
T1 construct: expressed in transfected cells; host or cells: mouse brain neurons transduced in vivo with AAV carrying expression cassettes #11, #13, #33, #34, #35, #36 (KA focal epilepsy model)
Experiment: kainic acid (KA) focal epilepsy mouse model, seizure frequency after repeated dosing of TC-5619
Format: in vivo
Excerpt: Six expression cassettes—#11, #13, #33, #34, #35, and #36 in Table 2—were each packaged into the AAV vector and tested in a kainic acid (KA) focal epilepsy mouse model. The animals were then monitored for seizure frequency following repeated dosing of TC-5619, an activator of the CODA71 receptor transgene encoded by these expression cassettes.

T1 sequence (P36544 with tags, fused parts or gaps Y151P/I152M/V154L/R155K/W156N/F159M/H163T): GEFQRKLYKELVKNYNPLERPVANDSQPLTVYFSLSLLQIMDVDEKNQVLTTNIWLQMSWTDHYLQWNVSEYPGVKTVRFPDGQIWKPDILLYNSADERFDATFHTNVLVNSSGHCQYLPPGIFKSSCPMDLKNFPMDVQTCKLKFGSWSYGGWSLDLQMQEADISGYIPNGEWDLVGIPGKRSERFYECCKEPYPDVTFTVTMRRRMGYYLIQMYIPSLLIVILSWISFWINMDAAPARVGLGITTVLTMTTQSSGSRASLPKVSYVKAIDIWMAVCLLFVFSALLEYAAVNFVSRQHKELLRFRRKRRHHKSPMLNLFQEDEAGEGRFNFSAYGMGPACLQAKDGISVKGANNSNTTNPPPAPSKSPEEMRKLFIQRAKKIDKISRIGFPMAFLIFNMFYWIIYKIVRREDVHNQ

Q: Which seizure burden (higher dose ranges of TC-5619, KA mice with AAV-delivered CODA71 cassettes) does the source give for `O=C(N[C@@H]1C2CCN(CC2)[C@H]1Cc1cccnc1)c1cc2ccccc2o1` [TC-5619] here?
A: The seizure burden was “significantly reduced seizure burden”.

Q: And the seizure frequency (repeated dosing of TC-5619 in KA mice injected with AAV carrying cassettes #11, #13, #33, #34, #35 or #36, FIG. 7)?
A: The seizure frequency was “dose-dependent reduction of seizure frequency”.

Q: What about the “residual effect after washout (return to baseline)” value (repeated single doses of TC-5619 followed by washout) of the same molecule?
A: The value was “no residual effect”.
